According to a compilation of properties of binary mixtures (doi:10.1021/acs.jced.0c00987):

Assay: xn = mol fraction of the nth substance listed
Conditions: 100 kPa

CCOS(=O)(=O)[O-].CC[n+]1ccn(C)c1 + OCC(O)CO
Conditions | electrical conductivity, 298.15 K [S/m] | electrical conductivity, 313.15 K [S/m] | viscosity, 293.15 K [mPa·s] | viscosity, 298.15 K [mPa·s] | viscosity, 303.15 K [mPa·s] | viscosity, 313.15 K [mPa·s]
x1 = 0.002 | 0.0004 | – | 1381.9 | 892 | 590 | –
x1 = 0.004 | 0.0006 | – | 1352.7 | 873 | 578 | –
x1 = 0.012 | 0.002 | 0.0063 | 1239 | 804 | 535 | 255.6
x2 = 0 | – | – | 123.5 | 95.9 | 75.7 | 49.7
x2 = 0.123 | – | 0.72 | 114.1 | – | 70.7 | 46.7
x2 = 0.264 | 0.386 | 0.71 | 104.7 | 81.9 | – | 43.1
x2 = 0.39 | 0.365 | 0.67 | 101.5 | 79.1 | 62.6 | 41.2
x2 = 0.5 | 0.313 | 0.6 | – | 81.2 | – | 41.2
x2 = 0.601 | – | 0.496 | 121 | – | 70.4 | 44.1
x2 = 0.703 | 0.173 | 0.371 | 162.3 | 119.2 | 89.3 | 53.3
x2 = 0.794 | 0.089 | 0.209 | 248.6 | 176.4 | 128 | 72.1
x2 = 0.901 | 0.026 | 0.071 | 533 | 360 | 249.8 | 129.3
x2 = 0.958 | 0.0075 | – | 922 | 604 | 406 | –
x2 = 0.98 | 0.0033 | 0.0102 | 1138.7 | 742 | – | 237.9

CC[n+]1ccn(C)c1.O=S(=O)([O-])C(F)(F)F + OCCO
Conditions | electrical conductivity, 298.15 K [S/m] | electrical conductivity, 313.15 K [S/m] | viscosity, 293.15 K [mPa·s] | viscosity, 298.15 K [mPa·s] | viscosity, 303.15 K [mPa·s] | viscosity, 313.15 K [mPa·s]
x1 = 0.001 | – | 0.0144 | 20.75 | – | 13.8 | 9.535
x1 = 0.002 | 0.0193 | 0.0335 | 20.6 | 16.7 | – | 9.46
x1 = 0.007 | 0.054 | 0.093 | – | 16.5 | 13.5 | 9.39
x1 = 0.013 | 0.082 | 0.137 | 20.1 | 16.3 | – | 9.28
x2 = 0.2 | 1.21 | 1.83 | 32.8 | 27.6 | – | 17.3
x2 = 0.413 | 1.44 | 2.17 | 21.9 | 18.6 | 15.9 | 11.9
x2 = 0.497 | – | – | 19.4 | 16.4 | 14 | –
x2 = 0.498 | 1.51 | 2.28 | – | – | – | –
x2 = 0.586 | 1.41 | 2.12 | – | – | – | –
x2 = 0.587 | – | – | 17.6 | 14.8 | 12.7 | 9.5
x2 = 0.697 | 1.25 | 1.91 | 15.8 | 13.3 | 11.3 | 8.39
x2 = 0.808 | 0.95 | – | 15.7 | 13 | 11 | –
x2 = 0.863 | 0.74 | 1.2 | 15.6 | 12.9 | 10.1 | 7.81
x2 = 0.907 | 0.52 | 0.87 | 17.1 | 14.1 | 11.7 | 8.32
x2 = 0.944 | 0.331 | 0.56 | 18.3 | 15 | 12.4 | 8.71
x2 = 0.974 | 0.161 | 0.276 | – | 15.9 | 13.1 | 9.1

OCCO + CCOS(=O)(=O)[O-].CC[n+]1ccn(C)c1
x1 = 1
Conditions | viscosity [mPa·s]
293.15 K | 20.8
313.15 K | 9.52

OCCN(CCO)CCO + CCOS(=O)(=O)[O-].CC[n+]1ccn(C)c1
Conditions | electrical conductivity, 298.15 K [S/m] | electrical conductivity, 313.15 K [S/m] | viscosity, 293.15 K [mPa·s] | viscosity, 298.15 K [mPa·s] | viscosity, 303.15 K [mPa·s] | viscosity, 313.15 K [mPa·s]
x1 = 0.153 | 0.356 | – | – | 97.8 | 77.1 | –
x1 = 0.285 | 0.284 | 0.53 | 121.9 | 94.1 | 74 | 48.1
x1 = 0.52 | 0.173 | 0.349 | 137.4 | 103.5 | 79.5 | 49.8
x1 = 0.617 | 0.126 | 0.266 | – | 117.8 | – | 54.3
x1 = 0.703 | 0.085 | 0.189 | 209.4 | 151.8 | 112.4 | 66
x1 = 0.787 | – | 0.108 | 286.6 | – | 146.5 | 82.5
x1 = 0.866 | 0.0219 | 0.055 | 416 | 287.3 | – | 110.1
x1 = 0.929 | – | 0.0234 | 583 | – | – | 143.5
x1 = 0.967 | – | 0.0103 | – | – | – | 167.7
x2 = 0.003 | 0.0004 | 0.0012 | 871 | 579 | 394 | 197.1
x2 = 0.006 | 0.0008 | 0.0021 | 857 | 570 | – | 195.3
x2 = 0.019 | 0.0021 | 0.0058 | 792 | 528 | 361 | 182.4

CC[n+]1ccn(C)c1.O=S(=O)([O-])C(F)(F)F + OCC(O)CO
Conditions | electrical conductivity, 298.15 K [S/m] | electrical conductivity, 313.15 K [S/m] | viscosity, 293.15 K [mPa·s] | viscosity, 298.15 K [mPa·s] | viscosity, 303.15 K [mPa·s] | viscosity, 313.15 K [mPa·s]
x1 = 0.002 | 0.0003 | 0.0008 | – | 887 | 588 | 280.1
x1 = 0.004 | 0.0006 | 0.0018 | 1333.2 | 862 | 572 | 272.9
x1 = 0.011 | 0.0014 | 0.0044 | 1257.8 | 815 | 543 | 259.2
x1 = 0.018 | 0.0025 | – | 1168.4 | 760 | 506 | –
x2 = 0.199 | 0.85 | 1.35 | – | 40.1 | 33.2 | 23.6
x2 = 0.299 | 0.77 | – | 50.2 | 40.7 | 33.4 | –
x2 = 0.401 | – | 1.16 | 57.2 | – | 36.6 | 24.9
x2 = 0.499 | 0.492 | 0.89 | 70.2 | 54.4 | 42.9 | 28
x2 = 0.605 | 0.316 | 0.6 | – | 73.4 | 56 | 34.7
x2 = 0.698 | 0.198 | 0.416 | – | 106.2 | 78.8 | 46.3
x2 = 0.805 | 0.089 | 0.21 | 261.5 | 182.8 | 130.6 | 71.6
x2 = 0.899 | 0.0255 | 0.066 | 545 | 366 | 251.6 | 128.5
x2 = 0.919 | 0.0172 | 0.0486 | 646 | 430 | 293.3 | 147.6
x2 = 0.962 | 0.0056 | 0.0174 | – | 633 | – | 206.8

OCCO + CC[n+]1ccn(C)c1.O=S(=O)([O-])C(F)(F)F
x1 = 1
Conditions | viscosity [mPa·s]
293.15 K | 20.8
298.15 K | 16.8
303.15 K | 13.8
313.15 K | 9.52

CCOS(=O)(=O)[O-].CC[n+]1ccn(C)c1 + OCCO
Conditions | electrical conductivity, 298.15 K [S/m] | electrical conductivity, 313.15 K [S/m] | viscosity, 293.15 K [mPa·s] | viscosity, 298.15 K [mPa·s] | viscosity, 303.15 K [mPa·s] | viscosity, 313.15 K [mPa·s]
x1 = 0.001 | – | 0.0161 | – | – | 13.5 | 9.345
x1 = 0.003 | 0.0213 | – | 20.6 | 16.7 | – | –
x1 = 0.008 | 0.057 | – | 20.6 | 16.7 | 13.7 | –
x1 = 0.014 | 0.096 | 0.162 | 20.3 | 16.5 | 13.5 | 9.4
x2 = 0 | – | – | 123.5 | – | 75.7 | 49.7
x2 = 0.304 | 0.68 | 1.13 | 54.6 | 44.5 | 36.7 | 25.1
x2 = 0.406 | 0.79 | – | – | 34.4 | 28.7 | –
x2 = 0.506 | 0.86 | 1.36 | 32.3 | 26.9 | 22.7 | 16.6
x2 = 0.597 | – | 1.48 | 25.8 | – | 18.3 | 13.5
x2 = 0.7 | 0.97 | 1.51 | 20.9 | 17.6 | 14.9 | 11
x2 = 0.792 | 0.87 | 1.38 | 18.4 | 15.4 | – | 9.59
x2 = 0.851 | – | 1.16 | 17.8 | – | 12.5 | 9.08
x2 = 0.899 | 0.53 | 0.86 | 18 | 14.9 | 12.4 | 8.92
x2 = 0.938 | 0.36 | – | 18.6 | 15.3 | 12.7 | –
x2 = 0.972 | 0.178 | 0.299 | 19.7 | 16.1 | 13.2 | 9.28

CCOS(=O)(=O)[O-].CC[n+]1ccn(C)c1 + OCCN(CCO)CCO
x2 = 0
Conditions | viscosity [mPa·s]
293.15 K | 123.5
298.15 K | 95.9
313.15 K | 49.7

OCCN(CCO)CCO + CC[n+]1ccn(C)c1.O=S(=O)([O-])C(F)(F)F
Conditions | electrical conductivity, 298.15 K [S/m] | electrical conductivity, 313.15 K [S/m] | viscosity, 293.15 K [mPa·s] | viscosity, 298.15 K [mPa·s] | viscosity, 303.15 K [mPa·s] | viscosity, 313.15 K [mPa·s]
x1 = 0.084 | 0.82 | 1.29 | – | 43.4 | – | 25.7
x1 = 0.167 | 0.72 | – | 55.7 | 45.1 | – | –
x1 = 0.305 | 0.53 | 0.92 | 66.8 | 52.5 | 42 | 28.2
x1 = 0.426 | – | 0.63 | 86.2 | – | 51 | 32.8
x1 = 0.539 | – | 0.463 | 118.7 | – | 66.2 | 40.7
x1 = 0.641 | 0.137 | 0.296 | 165 | 118.4 | – | 50.9
x1 = 0.723 | 0.079 | – | 233.1 | 163.2 | 117.4 | –
x1 = 0.802 | 0.041 | 0.102 | 336 | 228.6 | 160.6 | 86.3
x1 = 0.875 | – | 0.05 | 477 | – | 220.7 | 114.8
x1 = 0.94 | 0.0067 | 0.019 | 678 | 449 | 306.2 | 155
x1 = 0.969 | 0.0032 | 0.0092 | 793 | 523 | 355 | 177.4
x2 = 0.003 | 0.0004 | 0.0012 | 913 | 599 | 405 | 200.7
x2 = 0.006 | 0.0007 | – | 902 | 591 | – | –
x2 = 0.017 | 0.0019 | 0.0054 | 848 | 557 | 377 | 188
